Measurements taken from paper PMC6270263, “Factors Influencing the Antifolate Activity of Synthetic Tea-Derived Catechins” (Molecules, 2013).
Read-outs that look alike come from different tables or passages of the source.

Tests used:
[1] = tested on: SK-MEL-28 melanoma cell line; experiment: MTT cell proliferation assay in melanoma cells; assay type: cell-based, human; details: Homo sapiens, SK-MEL-28, 144 h, SK-MEL-28, after 6 days of treatment; read-out: Half-maximal inhibitory concentration (IC50)
Description: Antifolate compounds are designed to inhibit DHFR and act specifically during DNA and RNA synthesis, making them more toxic to rapidly dividing cells. Recent evidences indicate that tea-catechins and derived compounds could inhibit DHFR and block the folate cycle in cancer cells. Although inhibition of DHFR by these compounds could be a plausible explanation for their antifolate activity, the possibility of these compounds targeting (folate)-enzymes other than DHFR could not be excluded. To determine whether these newly synthetized compounds disrupt the folate cycle in cell culture, we studied their antiproliferative activity in the melanoma cell line SK-MEL-28 (Table 3). Concentration- and time-dependent effects were analyzed using the colorimetric 4,5-(3)-dimethylthiazol-2-yl)-2,5-diphenyltetrazolium bromide (MTT) method.
The human melanoma cell line SK-MEL-28 was obtained from American Type Culture Collection (ATCC, Manassas, VA, USA) and was maintained in Eagles’s Minimum Essential Medium (EMEM) supplemented with 10% (v/v) FBS and antibiotics at 37 °C in a humidified atmosphere containing 7.5% CO2. Cell viability was evaluated using the MTT cell proliferation assay. Cells were evaluated for apoptosis using a cell death detection ELISA (Cell Death Detection ELISAPLUS, Roche Diagnostics, Barcelona, Spain). The principle of this test is the detection of mono- and oligonucleosomes in the cytoplasmic fractions of cell lysates using biotinylated anti-histone and peroxidase-coupled anti-DNA antibodies. The amount of nucleosomes is photometrically quantified at 405 nm by the peroxidase activity retained in the immunocomplexes. Apoptosis was defined as the specific enrichment of mono- and oligonucleosomes in the cytoplasm and was calculated by dividing the absorbance of treated samples with the absorbance of untreated samples after correcting for the number of cells. The induction of apoptosis in each melanoma cell line after a 7 h treatment with 2 μM staurosporin (100% apoptotic cells) was used to calculate the number of apoptotic cells. For these assays, cells were plated in a 96-well plate at a density of 1000–2000 cells/well. Compounds were added once at the beginning of the experiments.

[2] = biological target: T1, free recombinant human DHFR (rHDHFR) (Homo sapiens, UniProt P00374); experiment: Binding of polyphenols to free rHDHFR by fluorescence quenching titration
T1 construct: made in house; host or cells: Bombyx mori chrysalides
T1 sequence (P00374 1-187): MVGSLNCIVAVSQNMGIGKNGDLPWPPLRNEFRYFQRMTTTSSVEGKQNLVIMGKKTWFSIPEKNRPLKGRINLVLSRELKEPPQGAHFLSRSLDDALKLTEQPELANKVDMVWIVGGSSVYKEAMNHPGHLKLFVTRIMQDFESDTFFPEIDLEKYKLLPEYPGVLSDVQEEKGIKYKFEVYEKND
Method: Natural and synthetic derivatives of tea catechins have shown to be good inhibitors of human DHFR [7, 11, 16, 18]. To determine the ability of natural and synthetic polyphenols to bind DHFR, we performed a structure-activity study by analyzing the binding of these polyphenols to DHFR using fluorescence quenching. Effective binding to free recombinant human DHFR (rHDHFR) was determined by measuring the decrease in enzyme fluorescence that occurs upon the formation of the enzyme-inhibitor complex. […] The dissociation constants of the synthetic compounds were on the same order as those of the natural analogues, indicating the high DHFR binding capacities of these new derivatives.
The dissociation constants for the binding of polyphenols to free recombinant human DHFR (rHDHFR) were determined by fluorescence titration in an automatic-scanning FluoroMax-3 (Jobin Ybon, Horiba, Edison, NJ, USA) spectrofluorometer with 1.0 cm light path cells and a 150 W mercury-xenon light source. The formation of a binary complex between the enzyme (2.5 × 10^−7 M) and the ligand (from 0 to 40 µM) was followed by measuring the quenching of the tryptophan fluorescence of the enzyme upon the addition of microliter volumes of a concentrated stock solution of ligand. Experiments were performed at pH 7.5 in a buffer containing 2-(N-morpholino)ethanesulfonic acid (Mes, 0.025 M), sodium acetate (0.025 M), tris(hydroxymethyl)aminomethane (Tris 0.05 M), and NaCl (0.1 M). The temperature was controlled at 25 °C using a Haake D1G circulating bath with a heater and cooler. Fluorescence emission spectra were recorded when the human DHFR fluorescence was excited at 290 nm, and titrations were performed as described elsewhere.

[3] = biological target: T2, bovine serum albumin (BSA) (Bos taurus, UniProt P02769); experiment: Competitive site-marker (warfarin, ibuprofen) binding to BSA; details: for Kd: BSA, 25 °C, read-out: Binding constant (KA) (converted)
T2 construct: purchased Sigma-Aldrich
Method: Next, the site selective binding of both EGCG and TMCG to BSA was analyzed. The capability of serum albumins to bind to aromatic and heterocyclic compounds is largely dependent on the existence of two major binding regions, namely site-I and site-II [25]. Warfarin and ibuprofen are fluorescence probes whose primary binding sites to BSA are site-I and site-II, respectively.
To identify the binding sites of EGCG and TMCG in BSA, the displacements of warfarin and ibuprofen (known to bind at site I and site II, respectively) were followed fluorometrically. Equimolar solutions of BSA and warfarin (5 × 10^−6 M each) were mixed for 1 h and titrated with EGCG and TMCG in separate experiments. Similar solutions containing equimolar ibuprofen and BSA were prepared and separately titrated with EGCG and TMCG to identify the binding sites of EGCG and TMCG with BSA. Titration was followed fluorometrically using an excitation wavelength of 280 nm.

T2 sequence (P02769 25-607): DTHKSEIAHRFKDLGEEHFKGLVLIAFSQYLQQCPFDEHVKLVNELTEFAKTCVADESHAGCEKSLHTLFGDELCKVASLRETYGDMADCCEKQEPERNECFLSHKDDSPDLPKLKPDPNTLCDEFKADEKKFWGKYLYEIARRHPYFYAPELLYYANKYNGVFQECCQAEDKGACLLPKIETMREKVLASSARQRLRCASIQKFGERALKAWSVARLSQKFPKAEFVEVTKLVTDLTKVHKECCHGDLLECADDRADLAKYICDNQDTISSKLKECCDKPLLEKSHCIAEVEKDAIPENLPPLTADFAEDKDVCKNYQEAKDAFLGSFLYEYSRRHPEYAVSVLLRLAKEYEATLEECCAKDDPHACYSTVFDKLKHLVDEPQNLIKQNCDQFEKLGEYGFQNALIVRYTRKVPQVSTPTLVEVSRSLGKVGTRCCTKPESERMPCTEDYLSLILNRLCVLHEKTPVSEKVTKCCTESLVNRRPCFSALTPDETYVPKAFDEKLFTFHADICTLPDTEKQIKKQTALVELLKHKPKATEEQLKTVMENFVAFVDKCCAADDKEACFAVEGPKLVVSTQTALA

COc1cc(C(=O)O[C@H]2Cc3c(O)cc(O)cc3O[C@@H]2c2ccc(O)c(O)c2)cc(OC)c1OC [TMCG] gave an IC50 [1] of 1.5 ± 0.4 µM, a Kd ([2]; Table 2, restates Table 1, read-out: KD, order of binding strengths to rHDHFR depending on D-ring substitution) of 0.9 µM and a Kd ([2]; pH 7.5, 25 °C, fluorescence titration, read-out: Dissociation constant KD of free rHDHFR) of 0.9 ± 0.1 µM. It also gave a Kd ([3]; site marker: Blank) of 5.26 µM, a Kd ([3]; site marker: Ibuprofen) of 9.09 µM and a Kd ([3]; site marker: Warfarin) of 20 µM. For the same molecule, the “Site selective binding to BSA” value ([3]; competition with warfarin (site-I) and ibuprofen (site-II)) was “higher specificity for site-I”.
